Experimental data reported in US10201552B2, “Method of increasing the bioavailability of an HIV drug” (HOWARD UNIVERSITY, priority 2013, dated 2019).

What was measured:
[1] = test system: Unactivated Human T-Cells; test: Uptake of radio labeled Tenofovir in human T-cells in presence and absence of ABC efflux pump inhibitors; assay type: cell-based; details: with specific MRP, BCRP and Pgp inhibitors vs without
Experimental: ABC efflux pump inhibitors. Briefly, human T-cells in the culture media (1 million/mL) were transferred to 15 mL centrifuge tubes. Radio labeled Tenofovir was added to the control tube and radio labeled Tenofovir along with defined concentrations of efflux pump inhibitors were added to the treatment tubes. The tubes were incubated for 15 minutes under culture conditions (37° C., 5% CO2/95% relative humidity). Following incubation, the tubes were centrifuged at 2000 rpm for 15 min and the supernatant is discarded. Ice cold stop solution (210 mM KCl, 2 mM HEPES [pH 7.4]) was added to stop the reaction. The cells were resuspended in stop solution to ensure washing and centrifuged at 2000 rpm for 15 min. The treatment with stop solution, washing and centrifugation is repeated to ensure through washing. 1 mL lysis solution (0.3 M NaOH, 0.1% Triton X-100) was added to the cell pellet and samples and incubated overnight to ensure complete cell lysis. Intracellular concentrations were analyzed by Beckman LS 6500 automated Scintillation Counter.

[2] = administered orally as disoproxil ester prodrug; cited from earlier work

C[C@H](Cn1cnc2c(N)ncnc21)OCP(=O)(O)O [Tenofovir]
intracellular accumulation of Tenofovir [1]: significant increase
bioavailability [2]: ≥ 20%
